Patent US20220289794A1, “SYNTHETIC ANTIMICROBIAL PEPTIDES” (priority 2019, published 2022)
In brackets after ≈: the same amount, converted by molar mass. Like-named read-outs stand apart in the source and are kept apart here. Non-standard residues stand in square brackets, D forms with d. Residues, ends and D or L forms follow the SMILES beside them. dDip = N[C@@H](C(=O)O)C(c1ccccc1)c1ccccc1; 2Nal = N[C@@H](Cc1ccc2ccccc2c1)C(=O)O; d2Nal = N[C@H](Cc1ccc2ccccc2c1)C(=O)O

Assays:
[1] = test system: Escherichia coli (ATCC 25922); details: ATCC 25922
[2] = test system: Pseudomonas aeruginosa (ATCC 27883)
S. aureus ATCC 29213 = details: ATCC 29213
in vitro = details: human, fresh human red blood cells (washed), pH 7.4
[3] = test system: Methicillin-resistant Staphylococcus aureus MRSA (ATCC BAA-1556); details: ATCC BAA-1556

Structure (SMILES)	MIC E. coli ATCC 25922 [1]	MIC P. aeruginosa ATCC 27883 ([2]; ATCC 27883)	MIC S. aureus ATCC 29213 (S. aureus ATCC 29213)	HC50 at 0.5 h (in vitro)	MIC MRSA ATCC BAA-1556 [3]	MIC P. aeruginosa ATCC 27883 ([2]; P. aeruginosa ATCC 27883)
NCCCC[C@@H]1NC(=O)[C@H](CCCCN)NC(=O)[C@H](CCCCN)NC(=O)[C@H](Cc2ccc3ccccc3c2)NC(=O)[C@H](Cc2ccc3ccccc3c2)NC(=O)[C@H](Cc2c[nH]c3ccccc23)NC(=O)[C@H](CCCCN)NC(=O)[C@H](CCCCN)NC1=O [IFX-131, c[Lys-Lys-Lys-Lys-Lys-Trp-NaI-NaI]] (cyclo([2Nal][2Nal]KKKKKW))	128 µg/mL (≈ 105 µM)	64 µg/mL (≈ 52.4 µM)	6.2 µg/mL (≈ 5.08 µM)	690 µg/mL	12.5 µg/mL (≈ 10.2 µM)	
N=C(N)NCCC[C@@H]1NC(=O)[C@H](Cc2ccc3ccccc3c2)NC(=O)[C@H](Cc2ccc3ccccc3c2)NC(=O)[C@H](Cc2c[nH]c3ccccc23)NC(=O)[C@@H](CCCNC(=N)N)NC(=O)[C@H](CCCNC(=N)N)NC(=O)[C@H](CCCNC(=N)N)NC1=O [IFX-105, c[Arg-Arg-Arg-arg-Trp-NaI-NaI]] (cyclo([2Nal][2Nal]RRR[dR]W))	12.5 µg/mL (≈ 10.4 µM)		3.1 µg/mL (≈ 2.57 µM)	130 µg/mL	3.1 µg/mL (≈ 2.57 µM)	12.5 µg/mL (≈ 10.4 µM)
N=C(N)NCCC[C@@H](N)C(=O)N[C@@H](CCCNC(=N)N)C(=O)N[C@H](CCCNC(=N)N)C(=O)N[C@@H](CCCNC(=N)N)C(=O)N[C@@H](Cc1c[nH]c2ccccc12)C(=O)N[C@H](Cc1ccc2ccccc2c1)C(=O)N[C@H](Cc1ccc2ccccc2c1)C(=O)O [IFX-110-1] (H-[dR]R[dR]RW[d2Nal][d2Nal]-OH)	25 µg/mL (≈ 20.4 µM)	25 µg/mL (≈ 20.4 µM)	3.1 µg/mL (≈ 2.53 µM)	330 µg/mL	3.1 µg/mL (≈ 2.53 µM)	
N=C(N)NCCC[C@@H]1NC(=O)[C@H](CCCNC(=N)N)NC(=O)[C@H](CCCNC(=N)N)NC(=O)[C@H](CCCNC(=N)N)NC(=O)[C@@H](Cc2ccc3ccccc3c2)NC(=O)[C@H](Cc2ccc3ccccc3c2)NC(=O)[C@H](Cc2c[nH]c3ccccc23)NC1=O [IFX-102, c[Arg-Arg-Arg-Arg-Trp-NaI-naI]] (cyclo([2Nal][d2Nal]RRRRW))	12.5 µg/mL (≈ 10.4 µM)	25 µg/mL (≈ 20.7 µM)	3.1 µg/mL (≈ 2.57 µM)	200 µg/mL	3.1 µg/mL (≈ 2.57 µM)	
NCCCC[C@@H]1NC(=O)[C@@H](CCCCN)NC(=O)[C@H](CCCCN)NC(=O)[C@@H](Cc2ccc3ccccc3c2)NC(=O)[C@@H](Cc2ccc3ccccc3c2)NC(=O)[C@H](Cc2c[nH]c3ccccc23)NC(=O)[C@@H](CCCCN)NC1=O [IFX-129, c[Lys-lys-Lys-lys-Trp-naI-naI]] (cyclo(K[dK]K[dK]W[d2Nal][d2Nal]))	64 µg/mL (≈ 58.5 µM)	64 µg/mL (≈ 58.5 µM)	3.1 µg/mL (≈ 2.84 µM)	420 µg/mL	3.1 µg/mL (≈ 2.84 µM)	
N=C(N)NCCC[C@@H]1NC(=O)[C@H](CCCNC(=N)N)NC(=O)[C@H](Cc2ccc3ccccc3c2)NC(=O)[C@H](Cc2ccc3ccccc3c2)NC(=O)[C@@H](Cc2c[nH]c3ccccc23)NC(=O)[C@H](CCCNC(=N)N)NC(=O)[C@H](CCCNC(=N)N)NC1=O [IFX-104, c[Arg-Arg-Arg-Arg-trp-NaI-NaI]] (cyclo([2Nal][2Nal]RRRR[dW]))	12.5 µg/mL (≈ 10.4 µM)		3.1 µg/mL (≈ 2.57 µM)	155 µg/mL	3.1 µg/mL (≈ 2.57 µM)	12.5 µg/mL (≈ 10.4 µM)
N=C(N)NCCC[C@@H]1NC(=O)[C@H](CCCNC(=N)N)NC(=O)[C@H](CCCNC(=N)N)NC(=O)[C@H](Cc2ccc3ccccc3c2)NC(=O)[C@@H](Cc2ccc3ccccc3c2)NC(=O)[C@H](Cc2c[nH]c3ccccc23)NC(=O)[C@H](CCCNC(=N)N)NC1=O [IFX-103, c[Arg-Arg-Arg-Arg-Trp-naI-NaI]] (cyclo([2Nal]RRRRW[d2Nal]))	12.5 µg/mL (≈ 10.4 µM)		3.1 µg/mL (≈ 2.57 µM)	170 µg/mL	3.1 µg/mL (≈ 2.57 µM)	12.5 µg/mL (≈ 10.4 µM)
N=C(N)NCCC[C@H](NC(=O)[C@@H](CCCNC(=N)N)NC(=O)[C@@H](N)CCCNC(=N)N)C(=O)N[C@H](CCCNC(=N)N)C(=O)N[C@@H](C(=O)N[C@@H](C(=O)N[C@@H](C(=O)O)C(c1ccccc1)c1ccccc1)C(c1ccccc1)c1ccccc1)C(c1ccccc1)c1ccccc1 [IFX-070-1] (H-R[dR]R[dR][dDip][dDip][dDip]-OH)	6.2 µg/mL (≈ 4.72 µM)	12.5 µg/mL (≈ 9.52 µM)	3.1 µg/mL (≈ 2.36 µM)	380 µg/mL	3.1 µg/mL (≈ 2.36 µM)	
N=C(N)NCCC[C@@H](N)C(=O)N[C@H](CCCNC(=N)N)C(=O)N[C@H](CCCNC(=N)N)C(=O)N[C@H](CCCNC(=N)N)C(=O)N[C@@H](Cc1c[nH]c2ccccc12)C(=O)N[C@H](Cc1ccc2ccccc2c1)C(=O)N[C@H](Cc1ccc2ccccc2c1)C(=O)O [IFX-109-1] (H-[dR][dR][dR][dR]W[d2Nal][d2Nal]-OH)	12.5 µg/mL (≈ 10.2 µM)	12.5 µg/mL (≈ 10.2 µM)	3.1 µg/mL (≈ 2.53 µM)	375 µg/mL	3.1 µg/mL (≈ 2.53 µM)	
N=C(N)NCCC[C@@H]1NC(=O)[C@@H](CCCNC(=N)N)NC(=O)[C@H](CCCNC(=N)N)NC(=O)[C@@H](Cc2ccc3ccccc3c2)NC(=O)[C@@H](Cc2ccc3ccccc3c2)NC(=O)[C@@H](Cc2ccc3ccccc3c2)NC(=O)[C@@H](CCCNC(=N)N)NC1=O [IFX-084, c[Arg-arg-Arg-arg-naI-naI-naI]] (cyclo(R[dR]R[dR][d2Nal][d2Nal][d2Nal]))		12.5 µg/mL (≈ 10.3 µM)	3.1 µg/mL (≈ 2.55 µM)	400 µg/mL	1.5 µg/mL (≈ 1.23 µM)	
N=C(N)NCCC[C@@H]1NC(=O)[C@@H](CCCNC(=N)N)NC(=O)[C@H](CCCNC(=N)N)NC(=O)[C@@H](C(c2ccccc2)c2ccccc2)NC(=O)[C@@H](C(c2ccccc2)c2ccccc2)NC(=O)[C@@H](C(c2ccccc2)c2ccccc2)NC(=O)[C@@H](CCCNC(=N)N)NC1=O [IFX-070, c[Arg-arg-Arg-arg-dip-dip-dip]] (cyclo(R[dR]R[dR][dDip][dDip][dDip]))		12.5 µg/mL (≈ 9.66 µM)	3.1 µg/mL (≈ 2.39 µM)	340 µg/mL	1.5 µg/mL (≈ 1.16 µM)	

Continued, in another order:

MIC E. coli ATCC 25922 [1]	MIC P. aeruginosa ATCC 27883 ([2]; ATCC 27883)	MIC S. aureus ATCC 29213 (S. aureus ATCC 29213)	HC50 at 0.5 h (in vitro)	MIC MRSA ATCC BAA-1556 [3]	Structure (SMILES)	MIC P. aeruginosa ATCC 27883 ([2]; P. aeruginosa ATCC 27883)
16 µg/mL (≈ 11.8 µM)	16 µg/mL (≈ 11.8 µM)	3.1 µg/mL (≈ 2.28 µM)	410 µg/mL	3.1 µg/mL (≈ 2.28 µM)	N=C(N)NCCC[C@H]1NC(=O)[C@@H](CCCNC(=N)N)NC(=O)[C@@H](CCCNC(=N)N)NC(=O)[C@@H](Cc2ccc3ccccc3c2)NC(=O)[C@@H](Cc2ccc3ccccc3c2)NC(=O)[C@@H](Cc2c[nH]c3ccccc23)NC(=O)[C@@H](CCCNC(=N)N)NC(=O)[C@@H](CCCNC(=N)N)NC1=O [IFX-124, c[arg-arg-arg-arg-arg-trp-naI-naI]] (cyclo([d2Nal][d2Nal][dR][dR][dR][dR][dR][dW]))	
12.5 µg/mL (≈ 9.52 µM)	25 µg/mL (≈ 19 µM)	3.1 µg/mL (≈ 2.36 µM)	355 µg/mL	6.2 µg/mL (≈ 4.72 µM)	N=C(N)NCCC[C@@H](N)C(=O)N[C@@H](CCCNC(=N)N)C(=O)N[C@H](CCCNC(=N)N)C(=O)N[C@@H](CCCNC(=N)N)C(=O)N[C@@H](C(=O)N[C@@H](C(=O)N[C@@H](C(=O)O)C(c1ccccc1)c1ccccc1)C(c1ccccc1)c1ccccc1)C(c1ccccc1)c1ccccc1 [IFX-068-1] (H-[dR]R[dR]R[dDip][dDip][dDip]-OH)	
16 µg/mL (≈ 11.8 µM)	16 µg/mL (≈ 11.8 µM)	3.1 µg/mL (≈ 2.28 µM)	190 µg/mL	3.1 µg/mL (≈ 2.28 µM)	N=C(N)NCCC[C@H]1NC(=O)[C@H](Cc2ccc3ccccc3c2)NC(=O)[C@H](Cc2ccc3ccccc3c2)NC(=O)[C@@H](Cc2c[nH]c3ccccc23)NC(=O)[C@@H](CCCNC(=N)N)NC(=O)[C@@H](CCCNC(=N)N)NC(=O)[C@@H](CCCNC(=N)N)NC(=O)[C@@H](CCCNC(=N)N)NC1=O [IFX-123, c[arg-arg-arg-arg-arg-trp-NaI-NaI]] (cyclo([2Nal][2Nal][dR][dR][dR][dR][dR][dW]))	
12.5 µg/mL (≈ 10.4 µM)	25 µg/mL (≈ 20.7 µM)	3.1 µg/mL (≈ 2.57 µM)	380 µg/mL	3.1 µg/mL (≈ 2.57 µM)	N=C(N)NCCC[C@@H]1NC(=O)[C@H](CCCNC(=N)N)NC(=O)[C@H](CCCNC(=N)N)NC(=O)[C@@H](Cc2ccc3ccccc3c2)NC(=O)[C@@H](Cc2ccc3ccccc3c2)NC(=O)[C@@H](Cc2c[nH]c3ccccc23)NC(=O)[C@H](CCCNC(=N)N)NC1=O [IFX-114, c[Arg-Arg-Arg-Arg-trp-naI-naI]] (cyclo(RRRR[dW][d2Nal][d2Nal]))	
64 µg/mL (≈ 58.5 µM)	128 µg/mL (≈ 117 µM)	6.2 µg/mL (≈ 5.67 µM)	540 µg/mL	6.2 µg/mL (≈ 5.67 µM)	NCCCC[C@@H]1NC(=O)[C@H](CCCCN)NC(=O)[C@H](CCCCN)NC(=O)[C@@H](Cc2ccc3ccccc3c2)NC(=O)[C@@H](Cc2ccc3ccccc3c2)NC(=O)[C@H](Cc2c[nH]c3ccccc23)NC(=O)[C@H](CCCCN)NC1=O [IFX-127, c[Lys-Lys-Lys-Lys-Trp-naI-naI]] (cyclo(KKKKW[d2Nal][d2Nal]))	
128 µg/mL (≈ 105 µM)	128 µg/mL (≈ 105 µM)	12.5 µg/mL (≈ 10.2 µM)	930 µg/mL	12.5 µg/mL (≈ 10.2 µM)	NCCCC[C@@H]1NC(=O)[C@H](CCCCN)NC(=O)[C@H](CCCCN)NC(=O)[C@@H](Cc2ccc3ccccc3c2)NC(=O)[C@@H](Cc2ccc3ccccc3c2)NC(=O)[C@@H](Cc2c[nH]c3ccccc23)NC(=O)[C@H](CCCCN)NC(=O)[C@H](CCCCN)NC1=O [IFX-132, c[Lys-Lys-Lys-Lys-Lys-trp-naI-naI]] (cyclo(KKKKK[dW][d2Nal][d2Nal]))	
